Test results taken from paper PMC12495412, “Coumarin/nitrogen-bearing heterocyclic hybrid-loaded electrospun PMMA/PVP nanofibrous scaffolds for accelerating topical wound healing rates: synthesis and in vitro bio-evaluation” (RSC Advances, 2025).
Marks after values point to notes of the source that are not given here.

Columns and labels:
Type in all cases: cell-based
Bacillus cereus [1] = test: Agar-well diffusion of formulations; details: 50 μL per 5 mm well, 37 °C
Protocol: (§1) The antimicrobial qualities of formulations were evaluated in this study using a variety of techniques. The formulations including 8 PMMA and 2 PVP, which contained varying doses of drug A (0.5% = T1, 1% = T2, 3% = T3, and 5% = T4) or drug B (0.5% = T5, 1% = T6, 3% = T7, and 5% = T8), as well as a combination of 2.5% of drug A and 2.5% of drug B (T9) were assessed. The tested human pathogens were cultivated in a nutritional broth medium containing 0.5% peptone, 0.3% yeast extract, 0.2% beef extract, 0.1% glucose, and 0.5% NaCl in accordance with 0.5 McFarland turbidity criteria.[25] To carry out the agar-well diffusion analysis, microbial cultures (100 μL) were spread on nutrient agar plates using sterile cotton swabs. After drilling each well with a sterile cork-borer of 5 mm in diameter, 50 μL of the tested formulations and the control (composed of 8 PMMA and 2 PVP) were loaded. Agar plates were thereafter left to incubate at 37 °C for an entire day. The inhibitory zone that surrounds each well was measured in millimeters (mm) using a ruler.[26]

Bacillus subtilis [2] = test: Agar-well diffusion of formulations; details: 50 μL per 5 mm well, 37 °C
Protocol: as §1

Candida albicans [3] = test: Agar-well diffusion of formulations; details: 50 μL per 5 mm well, 37 °C
Protocol: as §1

Candida glabrata [4] = test: Agar-well diffusion of formulations; details: 50 μL per 5 mm well, 37 °C
Protocol: as §1

Candida krusei [5] = test: Agar-well diffusion of formulations; details: 50 μL per 5 mm well, 37 °C
Protocol: as §1

Candida parapsilosis [6] = test: Agar-well diffusion of formulations; details: 50 μL per 5 mm well, 37 °C
Protocol: as §1

Escherichia coli [7] = test: Agar-well diffusion of formulations; details: 50 μL per 5 mm well, 37 °C
Protocol: as §1

Klebsiella pneumoniae [8] = test: Agar-well diffusion of formulations; details: 50 μL per 5 mm well, 37 °C
Protocol: as §1

Pseudomonas aeruginosa [9] = test: Agar-well diffusion of formulations; details: 50 μL per 5 mm well, 37 °C
Protocol: as §1

Salmonella paratyphi [10] = test: Agar-well diffusion of formulations; details: 50 μL per 5 mm well, 37 °C
Protocol: as §1

Staphylococcus aureus [11] = test: Agar-well diffusion of formulations; details: 50 μL per 5 mm well, 37 °C
Protocol: as §1

[12] = system: Staphylococcus epidermidis; test: Agar-well diffusion of formulations; details: 50 μL per 5 mm well, 37 °C
Protocol: as §1

[13] = system: multidrug-resistant human pathogens; test: Agar-well diffusion of formulations, whole panel; details: all human pathogens investigated
Protocol: as §1

Bacillus cereus [14] = test: Biofilm inhibition test (spectrophotometric); details: 24 h, 37 °C, OD vs untreated
Protocol: (§2) Additionally, a spectrophotometric antibiofilm assay was utilized to determine whether the evaluated formulations might inhibit the growth of pathogens. Fresh nutritional broth was inoculated with each pathogen separately, and this mixture was then incubated at 37 °C at 200 rpm. The optical density (OD) at 600 nm was measured over a 6 h incubation period, allowing for an estimation of the starting microbe's exponential phase (3 × 10^7 CFU mL^−1). To produce treated cultures, 900 μL of planktonic cultures were collected aseptically with 100 μL of each formulation. Furthermore, untreated (formula-free) cultures of pathogens were grown as controls. The cultures were then incubated for 24 hours at 200 rpm and 37 °C. Through spectroscopic evaluation of microbial turbidity, the inhibitory effects of the examined formulations were determined.[27] By comparing the OD of the treated sample with the matching controls, anti-biofilm percentages for each formula were computed.[28]

Bacillus subtilis [15] = test: Biofilm inhibition test (spectrophotometric); details: 24 h, 37 °C, OD vs untreated
Protocol: as §2

Candida albicans [16] = test: Biofilm inhibition test (spectrophotometric); details: 24 h, 37 °C, OD vs untreated
Protocol: as §2

Candida glabrata [17] = test: Biofilm inhibition test (spectrophotometric); details: 24 h, 37 °C, OD vs untreated
Protocol: as §2

Candida krusei [18] = test: Biofilm inhibition test (spectrophotometric); details: 24 h, 37 °C, OD vs untreated
Protocol: as §2

Candida parapsilosis [19] = test: Biofilm inhibition test (spectrophotometric); details: 24 h, 37 °C, OD vs untreated
Protocol: as §2

Escherichia coli [20] = test: Biofilm inhibition test (spectrophotometric); details: 24 h, 37 °C, OD vs untreated
Protocol: as §2

Klebsiella pneumoniae [21] = test: Biofilm inhibition test (spectrophotometric); details: 24 h, 37 °C, OD vs untreated
Protocol: as §2

Pseudomonas aeruginosa [22] = test: Biofilm inhibition test (spectrophotometric); details: 24 h, 37 °C, OD vs untreated
Protocol: as §2

Salmonella paratyphi [23] = test: Biofilm inhibition test (spectrophotometric); details: 24 h, 37 °C, OD vs untreated
Protocol: as §2

Staphylococcus aureus [24] = test: Biofilm inhibition test (spectrophotometric); details: 24 h, 37 °C, OD vs untreated
Protocol: as §2

[25] = system: Staphylococcus epidermidis; test: Biofilm inhibition test (spectrophotometric); details: 24 h, 37 °C, OD vs untreated
Protocol: as §2

## O=C(Nc1ccc(Nc2ccnc3cc(Cl)ccc23)cc1)c1cc2ccccc2oc1=O [Compound C2]
Bacillus cereus [1]
  Inhibition zone diameters: 0 mm
Bacillus subtilis [2]
  Inhibition zone diameters: 0 mm
Candida albicans [3]
  Inhibition zone diameters: 0 mm
Candida glabrata [4]
  Inhibition zone diameters: 0 mm
Candida krusei [5]
  Inhibition zone diameters: 0 mm
Candida parapsilosis [6]
  Inhibition zone diameters: 0 mm
Escherichia coli [7]
  Inhibition zone diameters: 0 mm
Klebsiella pneumoniae [8]
  Inhibition zone diameters: 0 mm
Pseudomonas aeruginosa [9]
  Inhibition zone diameters: 0 mm
Salmonella paratyphi [10]
  Inhibition zone diameters: 0 mm
Staphylococcus aureus [11]
  Inhibition zone diameters: 0 mm
[12]
  Inhibition zone diameters: 0 mm
[13]
  Antimicrobial effect: neither C1 nor C2 controls have any effect
Bacillus cereus [14]
  Biofilm reduction: 10.32 ± 0.19^i %
Bacillus subtilis [15]
  Biofilm reduction: 8.41 ± 0.31^i %
Candida albicans [16]
  Biofilm reduction: 3.21 ± 0.99^i %
Candida glabrata [17]
  Biofilm reduction: 6.48 ± 1.87^i %
Candida krusei [18]
  Biofilm reduction: 5.24 ± 1.22^i %
Candida parapsilosis [19]
  Biofilm reduction: 3.87 ± 0.14^i %
Escherichia coli [20]
  Biofilm reduction: 8.31 ± 0.75^i %
Klebsiella pneumoniae [21]
  Biofilm reduction: 2.03 ± 0.77^i %
Pseudomonas aeruginosa [22]
  Biofilm reduction: 3.65 ± 0.47^i %
Salmonella paratyphi [23]
  Biofilm reduction: 7.24 ± 0.38^i %
Staphylococcus aureus [24]
  Biofilm reduction: 11.31 ± 0.17^i %
[25]
  Biofilm reduction: 8.29 ± 0.19^i %

## O=C(Nc1ccc(Nc2c3ccccc3nc3ccccc23)cc1)c1cc2ccccc2oc1=O [Compound C3]
Bacillus cereus [1]
  Inhibition zone diameters: 0 mm
Bacillus subtilis [2]
  Inhibition zone diameters: 0 mm
Candida albicans [3]
  Inhibition zone diameters: 9.29 ± 1.25^fg mm
Candida glabrata [4]
  Inhibition zone diameters: 0 mm
Candida krusei [5]
  Inhibition zone diameters: 0 mm
Candida parapsilosis [6]
  Inhibition zone diameters: 7.25 ± 2.33^fg mm
Escherichia coli [7]
  Inhibition zone diameters: 0 mm
Klebsiella pneumoniae [8]
  Inhibition zone diameters: 0 mm
Pseudomonas aeruginosa [9]
  Inhibition zone diameters: 0 mm
Salmonella paratyphi [10]
  Inhibition zone diameters: 0 mm
Staphylococcus aureus [11]
  Inhibition zone diameters: 0 mm
[12]
  Inhibition zone diameters: 0 mm
[13]
  Antimicrobial effect: only has an impact on a few examined yeast infections
Bacillus cereus [14]
  Biofilm reduction: 23.36 ± 2.96^h %
Bacillus subtilis [15]
  Biofilm reduction: 37.29 ± 2.84^h %
Candida albicans [16]
  Biofilm reduction: 27.13 ± 3.96^h %
Candida glabrata [17]
  Biofilm reduction: 35.48 ± 2.58^h %
Candida krusei [18]
  Biofilm reduction: 29.91 ± 2.44^h %
Candida parapsilosis [19]
  Biofilm reduction: 25.79 ± 1.98^h %
Escherichia coli [20]
  Biofilm reduction: 20.93 ± 3.64^h %
Klebsiella pneumoniae [21]
  Biofilm reduction: 20.56 ± 2.65^h %
Pseudomonas aeruginosa [22]
  Biofilm reduction: 22.35 ± 2.58^h %
Salmonella paratyphi [23]
  Biofilm reduction: 22.55 ± 1.87^h %
Staphylococcus aureus [24]
  Biofilm reduction: 31.25 ± 2.98^h %
[25]
  Biofilm reduction: 34.71 ± 1.56^h %
